“Also recorded” adds a separate entry of the source.
Tested on: control diet-derived organoids
Assay: Ex vivo exposure of crypts and organoids to palmitic acid
Format: cell-based, mouse
Method: To examine whether PA, like a HFD, augmented the numbers of ISCs per primary organoid, we assayed the self-renewal capacity of the primary organoids in secondary cultures and assessed how PA-treatment influenced the frequency of ISCs.
Isolated crypts were counted and embedded in Matrigel™ (Corning 356231 growth factor reduced) at 5-10 crypts per μl and cultured in a modified form of medium as described previously.^14 Briefly, Advanced DMEM (Gibco) was supplemented by EGF 40 ng ml^−1 (R&D), Noggin 200 ng ml^−1 (Peprotech), R-spondin […](R&D or Sino Biological), N-acetyl-L-cysteine 1 μM (Sigma-Aldrich), N2 1X (Life Technologies), B27 1X (Life Technologies), Chiron 10 μM (Stemgent), Y-27632 dihydrochloride monohydrate 20 ng ml^−1 (Sigma-Aldrich). 25 μL drops of Matrigel™ with crypts were plated onto a flat bottom 48-well plate (Corning 3548) and allowed to solidify for 20-30 minutes in a 37° C. incubator. Three hundred microliters of crypt culture medium was then overlaid onto the Matrigel™, changed every three days, and maintained at 37° C. in fully humidified chambers containing 5% CO2. Clonogenicity (colony-forming efficiency) was calculated by plating 50-300 crypts and assessing organoid formation 3-7 days or as specified after initiation of cultures.
Isolated ISCs or progenitor cells were centrifuged for 5 minutes at 250 g, re-suspended in the appropriate volume of crypt culture medium (500-1,000 cells μl^−1), then seeded onto 25-30 μl Matrigel™ (Corning 356231 growth factor reduced) containing 1 μM jagged (Ana-Spec) in a flat bottom 48-well plate (Corning 3548). Alternatively, ISCs and Paneth cells were mixed after sorting in a 1:1 ratio, centrifuged, and then seeded onto Matrigel™. The Matrigel™ and cells were allowed to solidify before adding 300 μl of crypt culture medium. The crypt media was changed every second or third day. Organoid bodies were quantified on days 3, 7 and 10 of culture, unless otherwise specified. With respect to the study results presented in FIGS. 14-16, organoid bodies were quantified on day 3-4. […]

CCCCCCCCCCCCCCCC(=O)O [PA, palmitic acid]
primary organoid formation (clonogenic potential of crypts) (30 μM PA): did not change; also recorded: no effect
secondary organoid-forming activity (30 μM PA, four weeks): more than twofold increase; also recorded: more secondary organoid-forming activity
frequency of Lgr5-GFP^hi ISCs in organoids (four-week PA treatment): twofold increase; also recorded: increased the frequency

Source: patent US10426757B2, “Compositions and methods for promoting intestinal stem cell and/or non-stem progenitor cell function” (Whitehead Institute for Biomedical Research, priority 2014, dated 2019)
